The record followed here is patent US8207310B2, “Antibodies to proteolysis inducing factor (PIF) receptor and methods of use thereof” (Ashton University, priority 2006, dated 2012).

Entries after “also recorded” stand apart in the source; their conditions may differ.

This experiment deals with PIF receptors on C2C12 membranes. The experiment in a line: Competitive binding of [35S]PIF to C2C12 membranes. Particulars: result in words. More on the design: species or system mouse. The method, then: Competitive binding of [^35S]PIF C2C12 membranes (200 μg) in PBS (250 μl) were incubated with 1, 5, 10, 50, 100, 500 or 1000 ng of either monoclonal antibody, chondroitin, dermatan or heparan sulfate and 20 nM (480 ng) of [^35S]PIF overnight at 4° C. The bound radioactivity was determined from the radioactivity in the pellet obtained by centrifugation at 13,000 g for 5 min.
The Kaff was determined according to a modification (Clark, B. R. and Todd, C. W. Avidin as a precipitant for biotin-labelled antibody in a radioimmunoassay for carcinoembryonic antigen. Anal. Biochem., 121: 257-262, 1982.) of the method of Muller (Muller, R.
Calculation of average antibody affinity in anti-hapten sera from data obtained by competitive radioimmunoassay. J. Immunol. Methods, 34: 345-352, 1980.). Kaff=^1/(It−Tt)(1−[…]+0.5b^2) where It is the inhibitor concentration at 50% inhibition of PIF binding; Tt the total PIF concentration; b the fraction of PIF bound in the absence of inhibitor.

As for chondroitin sulfate, the “inhibition of binding of PIF to receptors on C2C12 membranes” value was “competitive inhibition; also recorded: specifically inhibited”.

As to heparan sulfate, the “inhibition of binding of PIF to receptors on C2C12 membranes” value is “not”.
